Measured values: patent publication US6562861B1 (priority 1997, dated 2003)
pIC50: −log10 of the molar value. Structures can show the parent of a compound that is named as a salt.

Assays:
[1] = molecular target: neuraminidase from the H1N9 strain of influenza (Influenza A virus, UniProt P03472); assay: biochemical; conditions: neuraminidase enzyme inhibition data (IC50 values) Flu A
Flu B neuraminidase = Flu B neuraminidase (Influenza B virus, UniProt P03474); assay: biochemical; conditions: neuraminidase enzyme inhibition data (IC50 values) Flu B
Sequence of Flu B neuraminidase (P03474 whole entry): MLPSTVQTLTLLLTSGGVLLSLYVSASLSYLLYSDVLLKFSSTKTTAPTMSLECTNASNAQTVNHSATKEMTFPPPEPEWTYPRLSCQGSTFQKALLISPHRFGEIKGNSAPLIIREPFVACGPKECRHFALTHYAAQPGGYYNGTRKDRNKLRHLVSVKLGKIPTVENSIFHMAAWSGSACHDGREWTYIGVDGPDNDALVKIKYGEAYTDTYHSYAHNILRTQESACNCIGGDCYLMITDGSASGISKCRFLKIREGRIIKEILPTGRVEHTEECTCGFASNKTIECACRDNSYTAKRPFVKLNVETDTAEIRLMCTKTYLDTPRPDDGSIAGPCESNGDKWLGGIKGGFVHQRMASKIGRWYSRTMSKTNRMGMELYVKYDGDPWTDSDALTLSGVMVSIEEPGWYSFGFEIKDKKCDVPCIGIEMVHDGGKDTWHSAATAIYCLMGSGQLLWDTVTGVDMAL

Sequence of neuraminidase from the H1N9 strain of influenza (P03472 83-470 limits assumed): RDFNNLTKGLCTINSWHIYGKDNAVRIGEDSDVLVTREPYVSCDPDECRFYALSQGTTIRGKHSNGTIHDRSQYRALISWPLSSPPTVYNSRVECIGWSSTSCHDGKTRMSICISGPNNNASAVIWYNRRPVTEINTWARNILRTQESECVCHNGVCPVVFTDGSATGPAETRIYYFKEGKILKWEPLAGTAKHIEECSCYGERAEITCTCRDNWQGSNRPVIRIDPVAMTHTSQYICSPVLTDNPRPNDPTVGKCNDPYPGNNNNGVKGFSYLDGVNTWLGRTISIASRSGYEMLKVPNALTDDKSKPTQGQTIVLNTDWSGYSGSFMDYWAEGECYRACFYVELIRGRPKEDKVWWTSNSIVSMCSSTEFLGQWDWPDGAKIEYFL

Row | SMILES | pIC50 [1] | pIC50 (Flu B neuraminidase)
1 | CCCCC(NC(C)=O)C1C(N)CC(C(=O)O)C1O (single isomer, unassigned) [Compound 165] | 4.00 to 6.00 | 4.00 to 6.00
2 | CCC(CC)C(NC(C)=O)[C@@H]1C[C@@H](C(=O)O)C[C@H]1NC(=N)N (stereo partly drawn) [Compound 209, (1R,3R,4R,1′S)-(−)-3-(1′-Acetylamino-2′-ethyl)butyl-4-(aminoimino)methyl-aminocyclopentan-1-carboxylic Acid] | > 6.00 | –
3 | CCC(CC)C(NC(C)=O)[C@@H]1C[C@@H](C(=O)O)C[C@H]1NC(=N)NC (stereo partly drawn) [Compound 212, (1R,3R,4R,1′S)-(−)-3-(1′-Acetylamino-2′-ethyl)butyl-4-[(N-methylamino-imino)methyl]aminoclopentan-1-carboxylic Acid] | > 6.00 | > 6.00
4 | CCC(CC)C(NC(C)=O)C1CC(C(=O)O)CC1NC(=N)N (single isomer, unassigned) [Compound 211, (±)-t-3-(1′-Acetylamino-2′-ethyl)butyl-c-4-[(amino-imino)methyl]-aminocyclopentan-r-1-carboxylic Acid] | > 6.00 | –
5 | CCC(CC)C(NC(C)=O)[C@@H]1[C@H](O)[C@@H](C(=O)O)C[C@H]1NC(=N)N (stereo partly drawn) [Compound 178, (1S,2S,3R,4R,1′S)-(−)-3-(1′-Acetylamino-2′-ethyl)butyl-4-[(aminoimino)methyl]amino-2-hydroxycyclopentan-1-carboxylic Acid] | > 6.00 | –
6 | CCC(CC)C(NC(C)=O)[C@@H]1C[C@@H](C(=O)O)C[C@H]1N (stereo partly drawn) [Compound 199, (1R,3R,4R,1′S)-(−)-3-(1′-Acetylamino-2′-ethyl)butyl-4-aminocyclopentan-1-carboxylic Acid] | > 6.00 | > 6.00
7 | CCC(CC)C(NC(C)=O)C1CC(C(=O)O)CC1N (single isomer, unassigned) [Compound 200, (±)-t-3-(1′-Acetylamino-2′-ethyl)butyl-c-4-aminocyclopentan-1-carboxylic Acid] | > 6.00 | > 6.00
8 | CCC(CC)C(NC(C)=O)C1CC(C(=O)O)CC1O (single isomer, unassigned) [Compound 65, (±) t-3-(1′-Acetylamino-2′-ethyl)butyl-t-4-hydroxycyclopentan-r-1-carboxylic Acid] | 4.00 to 6.00 | 4.00 to 6.00
9 | CCC(CC)C(NC(C)=O)C1C(NC(=N)N)CC(C(=O)O)C1O (single isomer, unassigned) [Compound 179, (±)-t-3-(1′-Acetylamino-2′-ethyl)butyl-c-4-[(amino-imino)methyl]amino-t-2-hydroxycyclopentan-r-1-carboxylic Acid] | > 6.00 | –
10 | CCC(C)C(NC(C)=O)C1C(N)CC(C(=O)O)C1O (single isomer, unassigned) [Compound 166, (±)-t-3-(1′-Acetylamino-2′-methyl)butyl-c-4-amino-t-2-hydroxycyclopentan-r-1-carboxylic Acid] | > 6.00 | 4.00 to 6.00
11 | CCCC(CCC)C(NC(C)=O)[C@@H]1C[C@@H](C(=O)O)C[C@H]1NC(=N)N (stereo partly drawn) [Compound 210, (1R,3R,4R,1′S)-(−)-3-(1′-Acetylamino-2′-propyl)pentyl-4-[(amino-imino)methyl]aminocyclopentan-1-carboxylic Acid] | > 6.00 | > 6.00
12 | CCCCC(NC(C)=O)C1C(NC(=N)N)CC(C(=O)O)C1O (single isomer, unassigned) [Compound 181] | > 6.00 | > 6.00
13 | CCC(CC)C(NC(C)=O)C1C(N)CC(C(=O)O)C1O (single isomer, unassigned) [Compound 162, (±)-t-3-(1′-Acetylamino-2′-ethyl)butyl-c-4-amino-t-2-hydroxycyclopentan-r-1-carboxylic Acid] | > 6.00 | > 6.00
14 | CCCC(CCC)C(NC(C)=O)[C@@H]1[C@H](O)[C@@H](C(=O)O)C[C@H]1NC(=N)N (stereo partly drawn) [Compound 183, (1S,2S,3R,4R,1′S)-(−)-3-(1′-Acetylamino-2′-propyl)pentyl-4-[(amino-imino)methyl]amino-2-hydroxycyclopentan-1-carboxylic Acid] | > 6.00 | > 6.00
15 | CCC(CC)C(NC(C)=O)[C@@H]1[C@H](O)[C@@H](C(=O)O)C[C@H]1NC(=N)NC (stereo partly drawn) [Compound 182, (1S,2S,3R,4R,1′S)-(−)-3-(1′-Acetylamino-2′-ethyl)butyl-4-[(N-methylamino-imino)methyl]amino-2-hydroxycyclopentan-1-carboxylic Acid] | > 6.00 | > 6.00
16 | CCCC(CCC)C(NC(C)=O)C1C(N)CC(C(=O)O)C1O (single isomer, unassigned) [Compound 163, (±)-t-3-(1′-Acetylamino-2′-propyl)pentyl-c-4-amino-t-2-hydroxycyclopentan-r-1-carboxylic Acid] | > 6.00 | > 6.00
17 | CCC(CC)CC(NC(C)=O)C1C(NC(=N)N)CC(C(=O)O)C1O (single isomer, unassigned) [Compound 180, (±)-t-3-(1′-Acetylamino-3′-ethyl)pentyl-c-4-[(amino-imino)methyl]amino-t-2-hydroxycyclopentan-r-1-carboxylic Acid] | > 6.00 | > 6.00
18 | CCC(CC)C(NC(C)=O)C1CC(C(=O)O)CC1N (single isomer, unassigned) [Compound 86, (±) t-3-[(1′-Acetylamino-2′-ethyl)butyl]-c-4-aminocyclopentan-r-1-carboxylic Acid] | 4.00 to 6.00 | 4.00 to 6.00
19 | CCC(CC)C(NC(C)=O)[C@@H]1C=C(C(=O)O)C[C@H]1NC(=N)N (stereo partly drawn) [Compound 219, (3R,4R,1′S)-(−)-3-(1′-Acetylamino-2′-ethyl)butyl-4-[(amino-imino)methyl]amino-cyclopent-1-en-1-carboxylic Acid Hydrochloride] | > 6.00 | > 6.00
20 | CCC(CC)C(NC(C)=O)[C@@H]1[C@H](O)[C@@H](C(=O)O)C[C@H]1N (stereo partly drawn) [Compound 160, (1S,2S,3R,4R,1′S)-(−)-3-(1′-Acetylamino-2′-ethyl)butyl-4-amino-2-hydroxycyclopentan-1-carboxylic Acid] | > 6.00 | > 6.00
